According to patent US6369047B2, “Androgenic steroid compounds and a method of making and using the same” (Research Triangle Institute, priority 1997, dated 2002):

Key:
[1] = tested on: Male Rats; experiment: Long Term Androgenic Activity in Male Rats; format: in vivo, rat
[2] = tested on: immature castrated male rats; experiment: Androgenic Activity, subcutaneous administration to immature castrated male rats; format: in vivo, rat; conditions: for Androgenic Activity, Seminal Vesicles / Androgenic Activity, Ventral Prostate / Androgenic Activity, Levator Ani: subcutaneous, Testosterone = 100
Experimental: Androgenic Activity was also evaluated using subcutaneous administration to immature castrated male rats (Testosterone=100).

[3] = molecular target: T1, androgen receptor from rat ventral prostate (Rattus norvegicus, UniProt P15207); experiment: Androgen RBA: relative binding to androgen receptor; conditions: Dihydrotestosterone = 100
T1 construct: androgen receptor from rat ventral prostate; from tissue; host or cells: rat ventral prostate
T1 sequence (P15207 1-902): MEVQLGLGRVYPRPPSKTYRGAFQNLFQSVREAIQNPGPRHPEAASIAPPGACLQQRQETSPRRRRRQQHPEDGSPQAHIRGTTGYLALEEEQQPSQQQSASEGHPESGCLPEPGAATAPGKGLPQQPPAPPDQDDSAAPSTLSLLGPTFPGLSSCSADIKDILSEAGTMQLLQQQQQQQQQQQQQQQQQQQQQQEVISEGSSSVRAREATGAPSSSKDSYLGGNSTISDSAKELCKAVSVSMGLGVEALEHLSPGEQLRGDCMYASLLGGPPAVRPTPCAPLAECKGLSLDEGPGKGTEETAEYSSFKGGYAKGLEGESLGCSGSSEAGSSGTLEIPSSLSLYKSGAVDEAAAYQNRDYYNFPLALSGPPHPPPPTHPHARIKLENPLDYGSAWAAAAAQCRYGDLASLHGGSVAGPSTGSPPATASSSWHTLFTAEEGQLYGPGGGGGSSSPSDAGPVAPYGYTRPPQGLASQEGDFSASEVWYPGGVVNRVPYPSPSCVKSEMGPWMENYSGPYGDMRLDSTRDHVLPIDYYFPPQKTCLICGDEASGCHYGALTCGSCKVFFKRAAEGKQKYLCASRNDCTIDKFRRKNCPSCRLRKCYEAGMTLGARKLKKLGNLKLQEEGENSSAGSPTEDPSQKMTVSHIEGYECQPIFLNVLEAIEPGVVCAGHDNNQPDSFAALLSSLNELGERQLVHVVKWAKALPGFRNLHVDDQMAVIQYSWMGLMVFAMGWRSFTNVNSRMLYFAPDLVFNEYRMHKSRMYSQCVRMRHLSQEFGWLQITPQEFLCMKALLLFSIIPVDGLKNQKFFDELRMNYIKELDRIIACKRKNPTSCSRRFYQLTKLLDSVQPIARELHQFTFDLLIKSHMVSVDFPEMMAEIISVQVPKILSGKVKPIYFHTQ

[4] = tested on: immature female rats; experiment: Estrogenic Activity, subcutaneous administration to immature female rats; format: in vivo, rat; conditions: Estradiol = 100
Experimental: (§1) Additionally, Estrogen RBA was determined by relative binding (Estradiol=100) to estrogen receptor from immature female rat uterus, while Estrogenic Activity was determined by subcutaneous administration to immature female rats (Estradiol=100).

[5] = molecular target: T2, estrogen receptor from immature female rat uterus (Rattus norvegicus, UniProt P06211); experiment: Estrogen RBA: relative binding to estrogen receptor; conditions: Estradiol = 100
T2 construct: estrogen receptor from immature female rat uterus; from tissue; host or cells: immature female rat uterus
T2 sequence (P06211 1-600): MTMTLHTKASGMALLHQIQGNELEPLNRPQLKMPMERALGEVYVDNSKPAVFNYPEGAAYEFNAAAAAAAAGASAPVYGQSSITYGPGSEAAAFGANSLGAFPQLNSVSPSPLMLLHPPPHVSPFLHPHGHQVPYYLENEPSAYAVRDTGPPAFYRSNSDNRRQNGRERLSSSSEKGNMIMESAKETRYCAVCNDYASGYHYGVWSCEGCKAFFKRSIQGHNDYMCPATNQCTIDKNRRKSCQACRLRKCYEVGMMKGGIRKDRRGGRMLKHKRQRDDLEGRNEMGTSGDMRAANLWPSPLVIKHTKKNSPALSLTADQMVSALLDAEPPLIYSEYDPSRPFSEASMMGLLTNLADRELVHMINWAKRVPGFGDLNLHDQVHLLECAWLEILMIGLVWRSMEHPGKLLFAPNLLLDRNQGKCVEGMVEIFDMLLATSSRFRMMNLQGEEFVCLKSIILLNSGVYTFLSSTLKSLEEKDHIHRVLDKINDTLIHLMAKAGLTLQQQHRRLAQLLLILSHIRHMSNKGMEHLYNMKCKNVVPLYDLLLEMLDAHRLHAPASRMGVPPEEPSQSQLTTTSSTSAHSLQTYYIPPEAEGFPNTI
Experimental: as §1

Row | Compound | Final Body Weight (% change from control) ([1]; 0.6 mg, week 1 after dose) | Seminal Vesicle Weight (% change from control) ([1]; 0.6 mg, week 1 after dose) | Ventral Prostate Weight (% change from control) ([1]; 0.6 mg, week 1 after dose) | Final Body Weight (% change from control) ([1]; 0.6 mg, week 2 after dose) | Seminal Vesicle Weight (% change from control) ([1]; 0.6 mg, week 2 after dose) | Ventral Prostate Weight (% change from control) ([1]; 0.6 mg, week 2 after dose) | Final Body Weight (% change from control) ([1]; 0.6 mg, week 4 after dose) | Seminal Vesicle Weight (% change from control) ([1]; 0.6 mg, week 4 after dose) | Ventral Prostate Weight (% change from control) ([1]; 0.6 mg, week 4 after dose) | Final Body Weight (% change from control) ([1]; 0.6 mg, week 6 after dose) | Seminal Vesicle Weight (% change from control) ([1]; 0.6 mg, week 6 after dose) | Ventral Prostate Weight (% change from control) ([1]; 0.6 mg, week 6 after dose) | Final Body Weight (% change from control) ([1]; 0.6 mg, week 8 after dose) | Seminal Vesicle Weight (% change from control) ([1]; 0.6 mg, week 8 after dose) | Ventral Prostate Weight (% change from control) ([1]; 0.6 mg, week 8 after dose) | Final Body Weight (% change from control) ([1]; 0.6 mg, week 10 after dose) | Seminal Vesicle Weight (% change from control) ([1]; 0.6 mg, week 10 after dose) | Ventral Prostate Weight (% change from control) ([1]; 0.6 mg, week 10 after dose) | Androgenic Activity, Seminal Vesicles [2] | Androgenic Activity, Ventral Prostate [2] | further results
1 | CCCCCCC(=O)O[C@H]1CC[C@H]2[C@@H]3CCC4=CC(=O)CC[C@]4(C)[C@H]3CC[C@]12C [Testosterone enanthate, reference compound] | 0% | 452% | 409% | 6% | 318% | 339% | −7% | 281% | 291% | 0% | 248% | 405% | 6% | 187% | 150% | 0% | 179% | 130% |  |  | 
2 | C=C1C[C@]2(C)[C@@H](O)CC[C@H]2[C@H]2[C@H]1[C@H]1CCC(=O)C=C1C[C@H]2C [RTI 1471-034, 17β-Hydroxy-7α-methyl-11-methyleneestr-4-en-3-one] |  |  |  |  |  |  |  |  |  |  |  |  |  |  |  |  |  |  | 993 | 1519-2148 | Androgen RBA [3]: 176
3 | C[C@@H]1CC2=CC(=O)CC[C@@H]2[C@H]2CC[C@]3(C)[C@@H](O)CC[C@H]3[C@@H]21 [RTI 1176-024, 7α-methyl-19-nortestosterone] |  |  |  |  |  |  |  |  |  |  |  |  |  |  |  |  |  |  | 790 | 609 | Androgenic Activity, Levator Ani [2]: 2510
4 | C[C@@H]1CC2=CC(=O)CC[C@@H]2[C@@H]2[C@@H]1[C@@H]1CC[C@H](O)[C@@]1(C)C[C@@H]2C [RTI 1176-012, 7α,11β-dimethyl-17β-hydroxyestr-4-en-3-one] |  |  |  |  |  |  |  |  |  |  |  |  |  |  |  |  |  |  | 1540 | 1480 | acute androgenic activity as compared with 7α-methyl-19-nortesterone ([2]; in words, refers to Table 1): marked increase in acute androgenic activity; Androgenic Activity, Levator Ani [2]: 3800; Androgen RBA [3]: 194; Estrogenic Activity [4]: 0.8; melting point: 149 to 151 °C; Estrogen RBA [5]: 0.6
5 | C[C@@H]1C[C@H]2CC(=O)CC[C@@H]2[C@@H]2[C@@H]1[C@@H]1CC[C@H](O)[C@@]1(C)C[C@@H]2C [RTI 1471-032, 7α,11β-dimethyl-17β-hydroxy-5α-estran-3-one] |  |  |  |  |  |  |  |  |  |  |  |  |  |  |  |  |  |  | 377 | 742 | Estrogenic Activity [4]: 0.7
6 | CCCCCCC(=O)O[C@H]1CC[C@H]2[C@H]3[C@H]([C@@H](C)C[C@]12C)[C@H]1CCC(=O)C=C1C[C@H]3C [RTI 147-029, 7α,11β-dimethyl-17β-heptanoyloxyestr-4-en-3-one] | 15% | 968% | 628% | 6% | 1428% | 778% | 1% | 1222% | 1145% | 0% | 1777% | 1810% | −16% | 1044% | 858% | 1% | 924% | 749% |  |  | Final Body Weight (% change from control) ([1]; 0.3 mg, week 1 after dose): 9%; Seminal Vesicle Weight (% change from control) ([1]; 0.3 mg, week 1 after dose): 571%; Ventral Prostate Weight (% change from control) ([1]; 0.3 mg, week 1 after dose): 368%; Final Body Weight (% change from control) ([1]; 0.3 mg, week 2 after dose): 1%; Seminal Vesicle Weight (% change from control) ([1]; 0.3 mg, week 2 after dose): 580%; Ventral Prostate Weight (% change from control) ([1]; 0.3 mg, week 2 after dose): 582%; Final Body Weight (% change from control) ([1]; 0.3 mg, week 4 after dose): 3%; Seminal Vesicle Weight (% change from control) ([1]; 0.3 mg, week 4 after dose): 438%; Ventral Prostate Weight (% change from control) ([1]; 0.3 mg, week 4 after dose): 583%; Final Body Weight (% change from control) ([1]; 0.3 mg, week 6 after dose): −1%; Seminal Vesicle Weight (% change from control) ([1]; 0.3 mg, week 6 after dose): 603%; Ventral Prostate Weight (% change from control) ([1]; 0.3 mg, week 6 after dose): 649%; Final Body Weight (% change from control) ([1]; 0.3 mg, week 8 after dose): −10%; Seminal Vesicle Weight (% change from control) ([1]; 0.3 mg, week 8 after dose): 312%; Ventral Prostate Weight (% change from control) ([1]; 0.3 mg, week 8 after dose): 340%; Final Body Weight (% change from control) ([1]; 0.3 mg, week 10 after dose): −2%; Seminal Vesicle Weight (% change from control) ([1]; 0.3 mg, week 10 after dose): 426%; Ventral Prostate Weight (% change from control) ([1]; 0.3 mg, week 10 after dose): 562%; potency and duration of action as compared with testosterone enanthate ([1]; in words, refers to Table 2): greater potency and longer duration of action
